Experimental data: the C3SDB collision cross section collection
Counter-ions that a name gives are not always drawn.

What was measured:
[1] = instrument: DT, stepped-field
[2] = instrument: DT, single field, calibrated with Agilent tune mix (Agilent)

SMILES	collision cross section (N2) ([1]; [M+H]+)	collision cross section (N2) ([1]; [M+Na]+)	other results
Nc1ncnc2c1ncn2[C@H]1C[C@H](O)[C@@H](CO)O1 [2'-Deoxyadenosine]	162.73 Å²	166.67 Å²	
N[C@@H](Cc1ccccc1Cl)C(=O)O [2-Chloro-L-Phenylalanine]	148.86 Å²		
Cc1ccccc1C(=O)NCC(=O)O [2-Methylhippuric Acid]		156.6 Å²	
CC(C)=CC(=O)SCCNC(=O)CCNC(=O)C(O)C(C)(C)COP(=O)(O)OP(=O)(O)OC[C@H]1O[C@@H](n2cnc3c(N)ncnc32)[C@H](O)[C@@H]1OP(=O)(O)O (some centres undefined) [3-Methylcrotonyl-CoA]	180.03 Å²		
CC(=O)NCCCC(=O)O [4-Acetamidobutanoic Acid]		138.57 Å²	
NC(N)=NCCCC(=O)O [4-Guanidinobutanoic Acid]	132.8 Å²		
N[C@@H](Cc1c[nH]c2ccc(O)cc12)C(=O)O [5-Hydroxy-L-Tryptophan]	157.88 Å²	156.47 Å²	
C[C@@H]1OC(O)[C@@H](O)[C@H](O)[C@@H]1O (stereo partly drawn) [6-Deoxy-L-galactose]		147.32 Å²	
O=C(O)c1ccc(=O)[nH]c1 [6-Hydroxynicotinate]	136.43 Å²		
O=C(O)[C@H](O)[C@@H](O)[C@H](O)[C@H](O)COP(=O)(O)O [6-Phosphogluconic Acid]		167.16 Å²	
CCCCC/C=C\C=C\C(O)CCCCCCCC(=O)O (centres undefined) [9-HODE]		189.14 Å²	
CCCCCC(=O)/C=C/C=C/CCCCCCCC(=O)O [13-OxoODE]	179.4 Å²	193.37 Å²	
CCCCCC1OC1C/C=C\C/C=C\C/C=C\CCCC(=O)O (centres undefined) [14(15)-EET]	182.43 Å²	187.07 Å²	
CCCCCCCCCCCCCCCCCC(=O)OC[C@@H](O)COP(=O)([O-])OCC[N+](C)(C)C [18:0 Lyso PC]		243.07 Å²	
CCOCN(C(=O)CCl)c1c(C)cccc1CC [Acetochlor]	160.09 Å²	174.6 Å²	
CC(=O)Oc1ccccc1C(=O)O [Acetylsalicylic Acid]		146.8 Å²	
Nc1ncnc2c1ncn2[C@@H]1O[C@H](COP(=O)(O)OP(=O)(O)O)[C@@H](O)[C@H]1O [Adenosine 5' Diphosphate]	188.61 Å²	196.92 Å²	
NC(=O)NC1NC(=O)NC1=O (centres undefined) [Allantoin]		145.61 Å²	
O=C1c2ccccc2C(=O)c2ccccc21 [Anthraquinone]	141.89 Å²		
CCCCCCCCCCCCCCCCCCCC(=O)O [Arachidic Acid]		199.97 Å²	
C[C@@H]1O[C@@H](O[C@H]2C(=O)c3c(O)cc(O)cc3O[C@@H]2c2ccc(O)c(O)c2)[C@H](O)[C@H](O)[C@H]1O [Astilbin]	205.87 Å²	212.64 Å²	

SMILES	collision cross section (N2) ([1]; [M+H]+)	collision cross section (N2) ([1]; [M+Na]+)	other results
C=C1C2CCC(C2)C1(C)C (centres undefined) [Camphene]	130.63 Å²	133.01 Å²	
CCCCC[C@H](O)/C=C/[C@H]1CC2CC(C2)[C@@H]1C/C=C\CCCC(=O)O [Carbocyclic Thromboxane A2]		203.6 Å²	
OC[C@H]1O[C@@H](O[C@H]2[C@H](O)[C@@H](O)[C@H](O[C@H]3[C@H](O)[C@@H](O)[C@H](O[C@H]4[C@H](O)[C@@H](O)[C@H](O[C@H]5[C@H](O)[C@@H](O)[C@H](O[C@H]6[C@H](O)[C@@H](O)[C@H](O)O[C@@H]6CO)O[C@@H]5CO)O[C@@H]4CO)O[C@@H]3CO)O[C@@H]2CO)[C@H](O)[C@@H](O)[C@@H]1O [Cellohexaose]		283.13 Å²	
OC[C@H]1O[C@@H](O[C@H]2[C@H](O)[C@@H](O)[C@H](O[C@H]3[C@H](O)[C@@H](O)[C@H](O[C@H]4[C@H](O)[C@@H](O)[C@H](O[C@H]5[C@H](O)[C@@H](O)C(O)O[C@@H]5CO)O[C@@H]4CO)O[C@@H]3CO)O[C@@H]2CO)[C@H](O)[C@@H](O)[C@@H]1O (some centres undefined) [Cellopentaose]		251.04 Å²	
O=C/C=C/c1ccccc1 [Cinnamaldehyde]	134.25 Å²		
O=C(O)/C=C/c1ccccc1 [Cinnamic Acid]	145.31 Å²		
O=C(O)/C=C(/CC(=O)O)C(=O)O [Cis-Aconitic Acid]	152.21 Å²	146.78 Å²	
Nc1ccn([C@@H]2O[C@H](CO)[C@@H](OP(=O)(O)O)[C@H]2O)c(=O)n1 [Cytidine 3'-monophosphate]	170.98 Å²	174.9 Å²	
Nc1ccnc(=O)[nH]1 [Cytosine]	121.58 Å²		
OC1OC[C@@H](O)[C@H](O)[C@H]1O (stereo partly drawn) [D-(+)-Xylose]		132.07 Å²	
O=C[C@@H](O)[C@H](O)[C@H](O)CO [D-Arabinose]		143.27 Å²	
O=C[C@H](O)[C@H](O)COP(=O)(O)O [D-Erythrose 4-Phosphate]		153.89 Å²	
N[C@@H]1C(O)O[C@H](CO)[C@@H](O)[C@@H]1O (stereo partly drawn) [D-Mannosamine]		146.73 Å²	
O=C(CO)[C@@H](O)[C@H](O)[C@H](O)[C@H](O)CO [D-Sedoheptulose]		150.73 Å²	
O=C(CO)[C@@H](O)[C@H](O)COP(=O)(O)O [D-Xylulose 5-Phosphate]		151.4 Å²	
CN(C)C(=O)Nc1ccc(Cl)c(Cl)c1 [Diuron]	153.32 Å²	162.7 Å²	
Cc1cc(O)c2c(c1)C(=O)c1cc(O)cc(O)c1C2=O [Emodin]	161.3 Å²		
O=C1C[C@@H](c2ccc(O)c(O)c2)Oc2cc(O)cc(O)c21 [Eriodictyol]	170.48 Å²	182.17 Å²	
OC[C@@H](O)[C@H](O)[C@H](O)[C@@H](O)CO [Galactitol]		145.91 Å²	
O=c1c(-c2ccc(O)cc2)coc2cc(O)cc(O)c12 [Genistein]	163.3 Å²	177.67 Å²	
O=C(O)[C@H](O)[C@@H](O)[C@H](O)[C@H](O)CO [Gluconic Acid]	141.89 Å²	149.77 Å²	

SMILES	collision cross section (N2) ([1]; [M+H]+)	collision cross section (N2) ([1]; [M+Na]+)	other results
O=C(O)CNCP(=O)(O)O [Glyphosate]		141.17 Å²	
NC(N)=NCC(=O)O [Guanidinoacetic Acid]	126.88 Å²		
CN(C)c1nc(=O)n(C2CCCCC2)c(=O)n1C [Hexazinone]	163.17 Å²	179.49 Å²	
CC(C)C1(C)N=C(c2ncccc2C(=O)O)NC1=O (centres undefined) [Imazapyr]	157.81 Å²	176.07 Å²	
OC1C(O)C(O)C(O)C(O)C1O (centres undefined) [Inositol]		151.95 Å²	
O=C(O)CC(C(=O)O)C(O)C(=O)O (centres undefined) [Isocitric Acid]		146.78 Å²	
CC(=O)N[C@H]1[C@@H](OP(=O)(O)OP(=O)(O)OC[C@H]2O[C@@H](n3ccc(=O)[nH]c3=O)[C@H](O)[C@@H]2O)O[C@H](CO)[C@@H](O)[C@@H]1O [UDP-N-acetylglucosamine]			collision cross section (N2) ([2]; [M+H]+): 208.8 Å²; collision cross section (N2) ([2]; [M-H]-): 222 Å²
O=c1ccn([C@@H]2O[C@H](COP(=O)(O)OP(=O)(O)OP(=O)(O)O)[C@@H](O)[C@H]2O)c(=O)[nH]1 [Uridine 5'-triphosphate]			collision cross section (N2) ([2]; [M-H]-): 178.55 Å²
O=C(O)CCC1=C(CC(=O)O)c2cc3nc(cc4[nH]c(cc5[nH]c(cc1n2)c(CC(=O)O)c5CCC(=O)O)c(CC(=O)O)c4CCC(=O)O)C(CC(=O)O)=C3CCC(=O)O [Uroporphyrin I]			collision cross section (N2) ([2]; [M+H]+): 285.1 Å²; collision cross section (N2) ([2]; [M-H]-): 267.79 Å²
COc1cc(C=O)ccc1O [Vanillin]			collision cross section (N2) ([2]; [M+H]+): 129.7 Å²; collision cross section (N2) ([2]; [M-H]-): 124.3 Å²
CC1=C(C/C=C(\C)CCC[C@H](C)CCC[C@H](C)CCCC(C)C)C(=O)c2ccccc2C1=O [Vitamin K1]			collision cross section (N2) ([2]; [M+H]+): 216.1 Å²; collision cross section (N2) ([2]; [M-H]-): 210.94 Å²
O=C(O)c1cc(=O)c2cccc(O)c2[nH]1 [Xanthurenic acid]			collision cross section (N2) ([2]; [M+H]+): 140.5 Å²; collision cross section (N2) ([2]; [M-H]-): 132.51 Å²
CC/C=C\C/C=C\C/C=C\CCCCCCCC(=O)O [alpha-Linolenic acid]			collision cross section (N2) ([2]; [M+H]+): 170.7 Å²; collision cross section (N2) ([2]; [M-H]-): 173.07 Å²
Cc1c(C)c2c(c(C)c1O)CC[C@@](C)(CCC[C@H](C)CCC[C@H](C)CCCC(C)C)O2 [alpha-Tocopherol]			collision cross section (N2) ([2]; [M+H]+): 216.6 Å²; collision cross section (N2) ([2]; [M-H]-): 208.52 Å²
Nc1nc(=O)c2ncn([C@@H]3O[C@@H]4COP(=O)(O)O[C@H]4[C@H]3O)c2[nH]1 [cGMP]			collision cross section (N2) ([2]; [M+H]+): 172.8 Å²
O=C(O)[C@H]1C[C@@H](O)CN1 [cis-4-Hydroxy-D-proline]			collision cross section (N2) ([2]; [M+H]+): 128.4 Å²; collision cross section (N2) ([2]; [M-H]-): 122.02 Å²
N[C@@H](CCC(=O)N[C@@H](CCC(=O)O)C(=O)O)C(=O)O [gamma-L-Glutamyl-L-glutamic acid]			collision cross section (N2) ([2]; [M+H]+): 162.6 Å²; collision cross section (N2) ([2]; [M-H2O-H]-): 152.43 Å²
OC1C(O)C(O)C(O)C(O)C1O (centres undefined) [myo-Inositol]			collision cross section (N2) ([2]; [M+Na]+): 148.2 Å²; collision cross section (N2) ([2]; [M-H]-): 128.61 Å²
CC(=O)[C@H]1CC[C@H]2[C@@H]3CC=C4C[C@@H](OS(=O)(=O)O)CC[C@]4(C)[C@H]3CC[C@]12C [pregnenolone sulfate]			collision cross section (N2) ([2]; [M-H]-): 203.91 Å²
CCCCC/C=C/C(=O)O [trans-2-Octenoic acid]			collision cross section (N2) ([2]; [M-H]-): 141.13 Å²
O=C(O)/C=C/c1ccccc1 [trans-cinnamate]			collision cross section (N2) ([2]; [M+H]+): 125.3 Å²
